Measured values from patent US12414955B2 (priority 2020, dated 2025).
pIC50: −log10 of the molar value. Several values for one entry are separate records, joined by “and”; a condition that tells them apart may be missing. Identical values can stand only once.

Experiments:
[1] = tested on: SARS CoV-1; assay: organism not typed; type: cell-based, Toronto 2 SARS CoV-1; conditions: for average plate ZIP synergy score / maximum ZIP synergy score / concentrations at which synergy was realized: SARS CoV-1 CPE assay
[2] = tested on: SARS-CoV-2; assay: microbe, parasite or virus in culture; type: cell-based; conditions: Severe acute respiratory syndrome coronavirus 2, A549, 48 h; read-out: IC50 for inhibition of SARS CoV-2 mediated cell killing
[3] = in vitro; conditions: African green monkey
[4] = in vitro; conditions: African green monkey; remark: listed apart in the source
[5] = tested on: SARS CoV-2; assay: SARS CoV-2 cytopathic effect (CPE) assay in Vero E6 host cells; type: cell-based, USA_WA1/2020 SARS CoV-2
[6] = Compound 1 in combination with hydroxychloroquine (HCQ)
[7] = Compound 1 in combination with remdesivir
[8] = combination of Compound 1 and hydroxychloroquine (HCQ)
[9] = combination of Compound 1 and remdesivir

SMILES | pIC50 [2] | CC50 [3] | CC50 [4] | also measured
C[C@@H]1COCCN1c1cc(N2CCCC[C@@H]2C(F)(F)F)[nH]c(=O)c1 [Compound 1] | 6.97 | > 30 µM | > 30 µM | average plate ZIP synergy score [1, 6]: 13.413; maximum ZIP synergy score [1, 6]: 37.77; average plate ZIP synergy score [1, 7]: 8.304; maximum ZIP synergy score [1, 7]: 33.66; pIC50 ([1]; Vero C1008, 72 h, read-out: IC50 for inhibition of SARS CoV-1 mediated cell killing): 6.19; concentrations at which synergy was realized [1, 8]: ≤ 1.9 µM; concentrations at which synergy was realized [1, 9]: ≤ 1.9 µM; average plate ZIP synergy score [5]: 5.523 and 8.345; maximum ZIP synergy score [5]: 32.8 and 40.8
C[C@@H]1COCCN1c1cc(N2CCCC[C@@H]2c2ccccc2)[nH]c(=O)c1 [Compound 2] | 5.69 | > 30 µM | > 30 µM | –
C[C@@H]1COCCN1c1cc(N2CCC[C@@H]2C(F)(F)F)[nH]c(=O)c1 [Compound 3] | < 4.52 | > 30 µM | > 30 µM | –
C[C@@H]1COCCN1c1cc(N2CCOC[C@H]2C(F)(F)F)[nH]c(=O)c1 [Compound 4] | 6.28 | > 30 µM | > 30 µM | –
C[C@@H]1COCCN1c1cc(N2CCOCC23CCC3)[nH]c(=O)c1 [Compound 5] | 5.11 | > 10 µM | > 10 µM | –
CCN(CCO)CCCC(C)Nc1ccnc2cc(Cl)ccc12 (stereo not drawn) [HCQ, hydroxychloroquine, reference compound] | – | – | – | concentrations at which synergy was realized [1, 8]: > 0.1 µM
CCC(CC)COC(=O)[C@H](C)N[P@](=O)(OC[C@H]1O[C@@](C#N)(c2ccc3c(N)ncnn23)[C@H](O)[C@@H]1O)Oc1ccccc1 [Remdesivir, remdesivir, reference compound] | – | – | – | concentrations at which synergy was realized [1, 9]: > 1.9 µM; concentrations at which synergy was realized [5]: above 0.5 μM
